≈ marks a conversion by molar mass, not a printed value.
Experiments:
[1] = system: Staphylococcus aureus (ATCC 43300); assay: Antibacterial MIC, broth microdilution (CLSI); type: cell-based; conditions: for MIC80: Staphylococcus aureus, ATCC43300, read-out: MIC80 S. aureus; for S. aureus Selectivity Indices, Group / S. aureus Selectivity Index (SI): SI, IC50 (μM)/MIC80 (μM), HEK293 cytotoxicity; for S. aureus Selectivity Index (SI): numeric value
[2] = system: Enterococcus faecalis (ATCC 51299); assay: Antibacterial MIC, broth microdilution (CLSI); type: cell-based; conditions: for MIC80: Enterococcus faecalis, ATCC51299, read-out: MIC80 E. faecalis; for E. faecalis Selectivity Indices, Group / E. faecalis Selectivity Index (SI): SI, IC50 (μM)/MIC80 (μM), HEK293 cytotoxicity; for E. faecalis Selectivity Index (SI): numeric value
[3] = system: Escherichia coli (ATCC 25922); assay: Antibacterial MIC, broth microdilution (CLSI); type: cell-based; conditions: Escherichia coli, ATCC25922; read-out: MIC80 E. coli
[4] = system: Genomic double stranded DNA (salmon); assay: Fluorescence intercalator displacement (FID) assay, SYBR-safe probe; conditions: 20 μM compound, 30° C., lower % = stronger binding
Method in brief: (§1)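 Compound at 20 μM mixed with 3.76 ng/mL polyAU dsRNA or salmon genomic dsDNA and 12500-fold diluted SybrSafe in 1 mM phosphate buffer pH 7.4, then heated to 30 °C and fluorescence read. Reduction is expressed as normalised %, with nucleic acid plus probe as maximum and probe alone as minimum.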

[5] = system: PolyAU double stranded RNA; assay: as above; conditions: 20 μM compound, 30° C., lower % = stronger binding
Method in brief: as §1

T. equiperdum = assay: Resazurin-based (Alamar blue) drug sensitivity assay; conditions: Trypanosoma equiperdum, read-out: IC50 T. equiperdum
T. evansi AntTat 3/3 = assay: as above; conditions: read-out: IC50 T. evansi
Protocol: A detailed description of the procedure for evaluating activity against trypanosomes, using an Alamar Blue (resazurin) assay, is described below.
The bloodstream form (BSF) T. b. brucei s427 (see De Koning, H. P. et al., Mol. Biochem. Parasitol. 2000, 106, 181-185), T. evansi AntTat 3/3 (see Dean, S. et al., Proc. Natl. Acad. Sci. USA, 2013, 110, 14741-14746), and T. equiperdum (see Stewart, M. L. et al., Eukaryot. Cell, 2010, 9, 336-343) were cultured in HMI-9 medium (Life Technologies, Paisley, United Kingdom) supplemented with 10% heat inactivated Foetal Bovine Serum (FBS (PAA Laboratories Linz, Austria)), 14 μL/L β-mercaptoethanol (BDH, Dorset, UK), and 3.0 g/L NaHCO3 (Sigma-Aldrich) and adjusted to pH 7.4. These cell lines were maintained at 37° C. in a humidified, 5% CO2 environment.
A resazurin-based (Alamar blue) drug sensitivity assay was used to assess and compare the activity of standard trypanocides in the different cell lines investigated (see Gould, M. K. et al., Anal. Biochem., 2008, 382, 87-93). Briefly, 23 doubling dilutions of the test compound of the invention, starting at 100 μM, and a compound-free control were prepared in 100 μL medium in a 96-well white plate (Greiner Bio-one, Frickenhausen, Germany). The cells were adjusted to 2×10^4 cells/mL for T. b. brucei and T. equiperdum; 4×10^4 cells/mL for T. evansi; and 5×10^5 cells/mL for T. congolense in the appropriate medium. 100 μL of the adjusted cells was then added to the wells containing drug dilutions and incubated for 48 h under respective culture condition. Thereafter, 20 μL of 125 mg/mL resazurin sodium dye was added, and the plate was incubated for a further 24 h.

T. vaginalis = assay: Trichomonas resorufin assay; type: cell-based; conditions: for IC50: Trichomonas vaginalis, read-out: IC50 T. vaginalis
[6] = system: SARS-CoV-2 (hCoV-19/Australia/VIC01/2020); assay: SARS-CoV-2 microplaque inhibition assay in Vero-E6 cells; type: cell-based; conditions: for SARS-CoV-2 Selectivity Indices, Group: SI, IC50 (μM)/IC50 (μM), HEK293 cytotoxicity, Alkyl Amidines and NH Pyrroles
Candida auris (H.17.157) = conditions: for C. auris Selectivity Indices, Group: SI, IC50 (μM)/MIC99 (μg/mL), HEK293 cytotoxicity, Alkyl Amidines and NH Pyrroles; for MIC99: Candidozyma auris, read-out: MIC99 Candida auris
Protocol: (§2) The Minimum Inhibitory Concentration (MIC, at 99% inhibition) of the compounds was determined using the broth microdilution method as recommended by EUCAST (EUCAST Definitive Document E.DEF 9.3.2, Method for the determination of broth dilution minimum inhibitory concentrations of antifungal agents for conidia forming moulds and EUCAST Definitive Document E.DEF 7.3.2 Method for the determination of broth dilution minimum inhibitory concentrations of antifungal agents for yeasts).

[7] = system: Candida glabrata (ACPF3309); conditions: for C. glabrata Selectivity Indices, Group: SI, IC50 (μM)/MIC99 (μg/mL), HEK293 cytotoxicity, Alkyl Amidines and NH Pyrroles; for MIC99: Nakaseomyces glabratus, read-out: MIC99 Candida glabrata
C. neoformans (F10025) = conditions: Cryptococcus neoformans, read-out: MIC99 C. neoformans
Protocol: as §2

[8] = system: A. fumigatus A1160 (MFIG001); conditions: Aspergillus fumigatus, read-out: MIC99 A. fumigatus A1160
[9] = system: Rhizopus arrhizus (NEQAS12.35321); conditions: read-out: MIC99 Rhizopus arrhizus
Protocol: as §2

[10] = SI, IC50 (μM)/IC50 (μM), HEK293 cytotoxicity, Alkyl Amidines and NH Pyrroles

| Structure (SMILES) | MIC80 [1] [µM] | MIC80 [2] [µM] | MIC80 [3] [µM] | % Normalised Fluorescence with gDNA [4] [%] | % Normalised Fluorescence with polyAU RNA [5] [%] | IC50 (T. equiperdum) [nM] | IC50 (T. evansi AntTat 3/3) [nM] | S. aureus Selectivity Indices, Group ([1]; Alkyl Amidines and NH Pyrroles) | E. faecalis Selectivity Indices, Group ([2]; Alkyl Amidines and NH Pyrroles) | T. vaginalis Selectivity Indices, Group (T. vaginalis; [10]) | SARS-CoV-2 Selectivity Indices, Group [6] | C. glabrata Selectivity Indices, Group [7] | also measured |
| --- | --- | --- | --- | --- | --- | --- | --- | --- | --- | --- | --- | --- | --- |
| Cn1cc(NC(=O)c2cc(NC(=O)c3ccc(/C=C/c4ccc5nonc5c4)cc3)c[nH]2)cc1C(=O)NCCN1CCOCC1 [IIIb9, (E)-4-(4-(4-(2-(benzo[c][1,2,5]oxadiazol-5-yl)vinyl)benzamido)-1H-pyrrole-2-carboxamido)-1-methyl-N-(2-morpholinoethyl)-1H-pyrrole-2-carboxamide] | 5 to 25 (≈ 3.04 to 15.2 µg/mL) | 5 to 25 (≈ 3.04 to 15.2 µg/mL) | > 100 | 55 | 30 | 10 to 100 | 100 to 1000 |  |  |  |  |  |  |
| Cn1cc(NC(=O)c2cc(NC(=O)c3ccc(/C=C/c4cnc5ccccc5c4)cc3)cn2C)cc1C(=O)NCCC1CCCCC1 [IVa3, (E)-N-(2-cyclohexylethyl)-1-methyl-4-(1-methyl-4-(4-(2-(quinolin-3-yl)vinyl)benzamido)-1H-pyrrole-2-carboxamido)-1H-pyrrole-2-carboxamide] | 25 to 100 (≈ 15.7 to 62.9 µg/mL) | > 100 | > 100 |  |  | 100 to 1000 | 100 to 1000 |  |  |  |  |  |  |
| COc1cccc(/C=C/c2ccc(C(=O)Nc3cc(C(=O)Nc4cc(C(=O)NCCN5CCOCC5)n(C)c4)n(C)c3)cc2)c1 [Ref-1, reference compound] |  |  |  |  |  |  |  | A (Group A: SI < 3) | A (Group A: SI < 3) | A (Group A: SI < 8) | A (Group A: SI < 4.1) | A (Group A: SI < 12) | C. auris Selectivity Indices, Group (Candida auris (H.17.157)): A (Group A: SI < 0.4) |
| O=C(Nc1c[nH]c(C(=O)Nc2c[nH]c(C(=O)NCCN3CCOCC3)c2)c1)c1ccc(/C=C/c2ccc3nonc3c2)cc1 [IIIb6, (E)-4-(4-(2-(benzo[c][1,2,5]oxadiazol-5-yl)vinyl)benzamido)-N-(5-((2-morpholinoethyl)carbamoyl)-1H-pyrrol-3-yl)-1H-pyrrole-2-carboxamide] | 25 to 100 (≈ 14.9 to 59.5 µg/mL) | > 100 | > 100 | 84 | 53 | 10 to 100 | 100 to 1000 |  |  |  |  |  |  |
| Cn1cc(NC(=O)c2cc(NC(=O)c3ccc(/C=C/c4cnc5ccccc5c4)cc3)cn2C)cc1C(=O)NCCN1CCOCC1 [Ref-3, (E)-1-methyl-4-(1-methyl-4-(4-(2-(quinolin-3-yl)vinyl)benzamido)-1H-pyrrole-2-carboxamido)-N-(2-morpholinoethyl)-1H-pyrrole-2-carboxamide, reference compound] |  |  |  |  |  |  |  | A (Group A: SI < 3) | A (Group A: SI < 3) | A (Group A: SI < 8) | A (Group A: SI < 4.1) | A (Group A: SI < 12) | S. aureus Selectivity Indices, Group ([1]; Amides): A (Group A: SI < 1.4); E. faecalis Selectivity Indices, Group ([2]; Amides): A (Group A: SI < 0.4); T. vaginalis Selectivity Indices, Group (T. vaginalis; SI, IC50 (μM)/IC50 (μM), HEK293 cytotoxicity, Amides): A (Group A: SI < 0.25); C. auris Selectivity Indices, Group (Candida auris (H.17.157)): A (Group A: SI < 0.4) |
| COc1ccc(/C=C/c2ccc(C(=O)Nc3cc(C(=O)Nc4cc(C(=O)NCCN5CCOCC5)n(C)c4)n(C)c3)cn2)cc1 [Ref-2, reference compound] |  |  |  |  |  |  |  | A (Group A: SI < 3) | A (Group A: SI < 3) | A (Group A: SI < 8) | A (Group A: SI < 4.1) | A (Group A: SI < 12) | C. auris Selectivity Indices, Group (Candida auris (H.17.157)): A (Group A: SI < 0.4) |
| Cn1cc(NC(=O)c2cc(NC(=O)c3ccc(/C=C/c4cnc5ccccc5c4)cc3)cn2C)cc1C(N)=O [IVa1, (E)-N-(5-carbamoyl-1-methyl-1H-pyrrol-3-yl)-1-methyl-4-(4-(2-(quinolin-3-yl)vinyl)benzamido)-1H-pyrrole-2-carboxamide] | < 5 | < 5 | > 100 | 41 | 65 | 100 to 1000 | 100 to 1000 |  |  |  |  |  | S. aureus Selectivity Indices, Group ([1]; Amides): B (Group B: 1.4 < SI <= 3); E. faecalis Selectivity Indices, Group ([2]; Amides): C (Group: C, 1.5 < SI <= 5); E. faecalis Selectivity Index (SI) [2]: 3 |
| CNC(=O)c1cc(NC(=O)c2cc(NC(=O)c3ccc(/C=C/c4cnc5ccccc5c4)cc3)cn2C)cn1C [IVa2, (E)-N,1-dimethyl-4-(1-methyl-4-(4-(2-(quinolin-3-yl)vinyl)benzamido)-1H-pyrrole-2-carboxamido)-1H-pyrrole-2-carboxamide] | < 5 | < 5 | > 100 | 29 | 73 | 100 to 1000 | 100 to 1000 |  |  |  |  |  | S. aureus Selectivity Indices, Group ([1]; Amides): C (Group C: SI > 3); S. aureus Selectivity Index (SI) [1]: 4; E. faecalis Selectivity Indices, Group ([2]; Amides): D (Group D: SI > 5); E. faecalis Selectivity Index (SI) [2]: 10 |
| COc1cccc(/C=C/c2ccc(C(=O)Nc3cc(C(=O)Nc4cc(C(=O)NCCC(=N)N)n(C)c4)n(C)c3)cc2)c1 [Ref-5, reference compound] |  |  |  |  |  |  |  | A (Group A: SI < 3) | A (Group A: SI < 3) | A (Group A: SI < 8) | A (Group A: SI < 4.1) | A (Group A: SI < 12) |  |
| CCNC(=N)CCNC(=O)c1cc(NC(=O)c2cc(NC(=O)c3ccc(/C=C/c4ccc(OC)cc4)nc3)cn2C)cn1C [Ia24, (E)-N-(5-((5-((3-(ethylamino)-3-iminopropyl)carbamoyl)-1-methyl-1H-pyrrol-3-yl)carbamoyl)-1-methyl-1H-pyrrol-3-yl)-6-(4-methoxystyryl)nicotinamide] | < 5 |  | > 100 | 1 | 4 |  |  |  | C (Group C: 5 < SI <= 10) | D (Group D: SI > 32) |  |  | T. vaginalis Selectivity Index (SI) (T. vaginalis; SI, IC50 (μM)/IC50 (μM), HEK293 cytotoxicity, numeric value): 69; MIC99 (C. neoformans (F10025)): 5 to 25 µg/mL (≈ 8.38 to 41.9 µM); MIC99 [8]: 25 to 50 µg/mL (≈ 41.9 to 83.8 µM); MIC99 [9]: > 50 µg/mL; MIC99 (Candida auris (H.17.157)): > 50 µg/mL; MIC99 [7]: 5 to 25 µg/mL (≈ 8.38 to 41.9 µM) |
| CCN(CC)CCCC(C)Nc1ccnc2cc(Cl)ccc12 (stereo not shown) [chloroquine diphosphate, reference compound] |  |  |  |  |  |  |  |  |  |  |  |  | IC50 ([6]; Severe acute respiratory syndrome coronavirus 2, Vero C1008, read-out: IC50 SARS-CoV-2 infectious viral foci): 641 nM |
| CCCCNC(=N)CCNC(=O)c1cc(NC(=O)c2cc(NC(=O)c3ccc(/C=C/c4cnc5ccccc5c4)cc3)cn2C)cn1C [Ia34, (E)-N-(3-(butylamino)-3-iminopropyl)-1-methyl-4-(1-methyl-4-(4-(2-(quinolin-3-yl)vinyl)benzamido)-1H-pyrrole-2-carboxamido)-1H-pyrrole-2-carboxamide] | < 5 | 5 to 25 (≈ 3.22 to 16.1 µg/mL) | > 100 | 7 | 6 |  |  | D (D: SI > 10) |  |  |  |  | S. aureus Selectivity Index (SI) [1]: 15; IC50 (T. vaginalis): 1000 to 5000 nM; MIC99 (C. neoformans (F10025)): 25 to 50 µg/mL (≈ 38.8 to 77.5 µM); MIC99 [8]: > 50 µg/mL; MIC99 [9]: > 50 µg/mL; MIC99 (Candida auris (H.17.157)): > 50 µg/mL; MIC99 [7]: 5 to 25 µg/mL (≈ 7.75 to 38.8 µM) |
| [H]/N=C(\CCNC(=O)c1cc(NC(=O)c2cc(NC(=O)c3ccc(C=Cc4ccc5nonc5c4)cc3)cn2C)cn1C)N1CCCCC1 [Ib2, (E)-4-(4-(2-(benzo[c][1,2,5]oxadiazol-5-yl)vinyl)benzamido)-N-(5-((3-imino-3-(piperidin-1-yl)propyl)carbamoyl)-1-methyl-1H-pyrrol-3-yl)-1-methyl-1H-pyrrole-2-carboxamide] | < 5 | < 5 | > 100 | 12 | 3 |  |  |  |  |  |  |  | IC50 (T. vaginalis): < 1000 nM; MIC99 (C. neoformans (F10025)): 5 to 25 µg/mL (≈ 7.72 to 38.6 µM); MIC99 [8]: 5 to 25 µg/mL (≈ 7.72 to 38.6 µM); MIC99 [9]: 5 to 25 µg/mL (≈ 7.72 to 38.6 µM); MIC99 (Candida auris (H.17.157)): > 50 µg/mL; MIC99 [7]: < 5 µg/mL |
